For experiment [1], the system named is H. influenzae (strain 46519). As to the kind of experiment: inhibition of adherence of H. influenzae (strain 46519) to epithelial cells. The class given is cell-based. The note with it: Haemophilus influenzae, Epithelial cell, read-out: IC50 [mean (SD)]. An excerpt: (§1) A method similar to that of Rostand, K. and Esko, (1993) J. Biol. Chem. 268 pp 24053-3, which studied the binding of radiolabelled P. aeruginosa to CHO cells was used to test for the binding inhibition of oligosaccharide compounds. For the studies described herein, S. pneumoniae (strains R-6, P70, and other clinical respiratory isolates) were labelled by culture in lysine-deficient tryptic soy broth containing ^3 H-lysine. The tryptic soy broth was made deficient in lysine by pre-treating it with lysine decarboxylase from E. coli. The bacteria were cultured for 4-5 hours, at which point the culture was in exponential growth. The bacteria were harvested and washed in Leibovitz L-15 Medium supplemented with 0.2% low-endotoxin bovine serum albumin. The bacteria were diluted to approximately 3×10^8 /mL, and then mixed 1:1 with either L-15-BSA or with various compounds to be tested. The bacterial mixtures were incubated at room temperature, with gentle agitation on an orbital shaker. After 10-15 min, samples of the bacterial mixtures were transferred to the surface of a confluent monolayer of cultured epithelial cells in a 96-well polystyrene plate. The cells most commonly used were the Wong-Kilbourne derivative of Chang conjunctiva. The human nasopharyngeal cell line Detroit 562, and the human lung cell line A549 were also used. The bacteria were incubated with the cells for 30 min with gentle agitation, at room temperature. The unbound bacteria were washed away with PBS containing 0.2% bovine serum albumin. Scintillant solution was added to the wells, and the plate was put in a microplate scintillation counter for quantitation of bound bacteria.
(§2) Adhesion of H. influenzae to epithelial cells was performed with the same protocol with the following modifications: The bacteria were cultured overnight in lysine-deficient Haemophilus test media. The bacteria were incubated with the cells at a concentration near 10^7 /mL for 60 min.
(§3) Using the testing protocol described in Example 2, four strains of bacteria were tested for binding inhibition by different oligosaccharide compounds.

The test system of experiment [2] is Burkholderia (Pseudomonas) cepacia. As to the kind of experiment: inhibition of adherence of Burkholderia (Pseudomonas) cepacia to respiratory epithelial cells. The class given is cell-based.
Description: as §1, §3

For experiment [3], the system named is S. pneumoniae strain AII. As to the kind of experiment: treatment of rabbits pre-colonized with S. pneumoniae with adherence-reversing oligosaccharide. The class given is in vivo, New Zealand white rabbits. On the procedure: S. pneumonaie strain AII were administered to New Zealand white rabbits by tracheal instillation. All rabbits were sick at 24 h, with indications of pneumonia. After 24 h oligosaccharide (LNnT) or control (saline) was administered intratracheally. After an additional 24 h lung lavage colonies were counted as described in Example 3.

In a further experiment the test system is S. pneumoniae. As to the kind of experiment: inhibition of adherence of S. pneumoniae to respiratory epithelial cells. The class given is cell-based. The conditions noted are these: Streptococcus pneumoniae.
A further experiment has as its system Escherichia coli C600. The note with it: Rosenstein et al (1992); cited from earlier work.
Experiment [4] concerns S. pneumoniae strain AII. As to the kind of experiment: colonization of rabbit lungs with S. pneumoniae in the presence of an adherence-inhibitory oligosaccharide. The class given is in vivo, New Zealand white rabbits. The conditions noted are these: 100 μM. An excerpt: Rabbits S. pneumoniae strain AII were mixed with oligosacchardies and administered to New Zealand white rabbits by tracheal instillation, and lung lavage colonies were counted at the indicated time by the method described in Saukkonen, et al., 1991, J. Exp. Med. 173:1143-9.

Experiment [5] concerns H. influenzae (strain 39689). As to the kind of experiment: inhibition of adherence of H. influenzae (strain 39689) to epithelial cells. The class given is cell-based. The note with it: Haemophilus influenzae, Epithelial cell, read-out: IC50 [mean (SD)].
Description: as §1, §2, §3

Experiment [6] concerns Pseudomonas aeruginosa M35. The note with it: Rosenstein et al (1992); isolate from cystic fibrosis patients; cited from earlier work.
A further experiment has as its system Streptococcus pneumoniae. The note with it: Andersson et al J. Exp. Med. (1983); cited from earlier work.
The subject of experiment [7] is immunoglobulin E-binding protein. The note with it: Feizi et al Biochemistry 1994; cited from earlier work.
The next experiment relates to Pseudomonas aeruginosa. The conditions noted are these: Ramphal et al (1991); cited from earlier work.
A further experiment concerns Escherichia coli. The note with it: Ginsburg et al U.S. Pat. No. 5,225,330; cited from earlier work.
The test system of the next experiment is Mycoplasma pneumoniae. The note with it: Ginsburg et al U.S. Pat. No. 5,225,330, Table I; cited from earlier work.
[8] abbreviates: Burkholderia, Calu 3 cells, read-out: IC50 [mean (SD)].
[9] abbreviates: A549, read-out: IC50 [mean (SD)], Monovalent, A549 human lung carcinoma, activated with IL1.
Setting [10] is: Calu-3, read-out: IC50 [mean (SD)], Monovalent, CaLu-3 human lung carcinoma.
The mark [11] stands for this setting: Epithelial cell, read-out: IC50 [mean (SD)], Monovalent, Chang human conjunctival carcinoma.
The mark [12] stands for this setting: Epithelial cell, read-out: IC50 [mean (SD)], Monovalent, Det-562 human nasopharyngeal carcinoma.
Setting [13] is: HUVEC, read-out: IC50 [mean (SD)], Monovalent, HUVEC activated with TNFα or thrombin.
Where [14] appears, read: experiment 1, inoculum 5 × 10^5 bacteria, intratracheal, 4 day lavage.
[15] abbreviates: experiment 2, inoculum 5 × 10^5 bacteria, intratracheal, 4 day lavage.
Where [16] appears, read: experiment 3, inoculum 5 × 10^7 bacteria, 24 h lavage.

The text below walks through data of patent US5736533A, “Bacterial inhibition with an oligosaccharide compound” (Neose Technologies, Inc., priority 1995, dated 1998).

“And” between values parts separate entries of the source, which are not always exact repeats. Equal values may be shown once. Read-outs that look alike come from different tables or passages of the source.

Regarding `CC(=O)N[C@H]1[C@H](O[C@H]2[C@@H](O)[C@@H](CO)O[C@@H](O[C@H]3[C@H](O)[C@@H](O)C(O)O[C@@H]3CO)[C@@H]2O)O[C@H](CO)[C@@H](O[C@@H]2O[C@H](CO)[C@H](O)[C@H](O)[C@H]2O)[C@@H]1O` (stereo partly drawn) [LNnT, Galβ1-4-GlcNAcβ1-3-Galβ1-4-Glc], the IC50 is more than 14 mM in experiment [1]; 5.6 mM in experiment [2] (setting [8]); 0.095 mM with S. pneumoniae (setting [9]); more than 16 mM in the experiment with S. pneumoniae (setting [10]); 8 mM in the experiment on S. pneumoniae (setting [11]); 7 mM in the experiment with S. pneumoniae (setting [12]). The IC50 is 0.052 mM with S. pneumoniae (setting [13]) and more than 14 mM in [5]. Moreover, in the experiment on S. pneumoniae strain AII [3] (at 48 h), the “condition of treated rabbits” value is recorded as “healthy”. In addition, the “CFU (lung lavage)” value is 0 CFU in the experiment with S. pneumoniae strain AII [3] (inoculum 10^5 bacteria, 100 μM intratracheal, lavage 24 h after oligosaccharide treatment and 48 h after bacterial instillation); 8.7 × 10^2 CFU (colonies/ml lavage fluid) and 4.7 × 10^3 CFU (colonies/ml lavage fluid) in the experiment on S. pneumoniae strain AII [4] (experiment 1, inoculum 5 × 10^5 bacteria, intratracheal, 24 h lavage, 2 rabbits/group, one value per rabbit); < 10 CFU (colonies/ml lavage fluid) in the experiment with S. pneumoniae strain AII [4] (setting [14]); 0 CFU (colonies/ml lavage fluid) in the experiment with S. pneumoniae strain AII [4] (setting [15]); 0 CFU (colonies/ml lavage fluid) in the experiment on S. pneumoniae strain AII [4] (setting [16]); 1.1 × 10^3 CFU (colonies/ml lavage fluid) and 1.4 × 10^3 CFU (colonies/ml lavage fluid) in the experiment on S. pneumoniae strain AII [4] (experiment 4, inoculum 10^5 bacteria, intratracheal, 24 h lavage). In addition, the binding activity entry (with Escherichia coli C600; in [6]) was “high binding activity” in each case.
On to “NeuAcα2-3Galβ1-4-GlcNAcβ1-3-Galβ1-4-Glc--Cer [compound 3]”, for which the binding inhibition result with Streptococcus pneumoniae was “no effect”.
As for `CC(=O)N[C@H]1[C@H](O[C@H]2[C@@H](O)[C@@H](CO)O[C@@H](O[C@H]3[C@H](O)[C@@H](O)C(O)O[C@@H]3CO)[C@@H]2O)O[C@H](CO)[C@@H](O[C@@H]2O[C@H](CO)[C@H](O)[C@H](O[C@]3(C(=O)O)C[C@H](O)[C@@H](NC(C)=O)[C@H]([C@H](O)[C@H](O)CO)O3)[C@H]2O)[C@@H]1O` (stereo partly drawn) [LSTd, NeuAcα2-3-Galβ1-4-GlcNAcβ1-3-Galβ1-4-Glc], the results for the IC50 in the experiment on S. pneumoniae (setting [9]), in the experiment with S. pneumoniae (setting [11]) and with S. pneumoniae (setting [13]) were 0.095 mM, 0.6 mM and 0.09 mM, respectively.
Regarding `CC(=O)N[C@H]1[C@H](O[C@H]2[C@@H](O)[C@@H](CO)O[C@@H](O[C@H]3[C@H](O)[C@@H](O)C(O)O[C@@H]3CO)[C@@H]2O)O[C@H](CO)[C@@H](O[C@@H]2O[C@H](CO[C@]3(C(=O)O)C[C@H](O)[C@@H](NC(C)=O)[C@H]([C@H](O)[C@H](O)CO)O3)[C@H](O)[C@H](O)[C@H]2O)[C@@H]1O` (stereo partly drawn) [LSTc, NeuAcα2-6-Galβ1-4-GlcNAcβ1-3-Galβ1-4-Glc], the IC50 in [2] (setting [8]) turned out to be 1 mM; in [2] (first table (P. cepacia), CaLu-3 lung carcinoma, read-out: IC50), 1 mM; in the experiment with S. pneumoniae (A549, first table, A549 lung carcinoma, activated with IL1), 0.1 mM; in the experiment on S. pneumoniae (setting [9]) it was 0.069 mM; with S. pneumoniae (Calu-3, first table, CaLu-3 lung carcinoma), 4.4 mM; with S. pneumoniae (setting [10]), 4.4 mM. In addition, the IC50 with S. pneumoniae (Epithelial cell, first table, 1° lung: rat tracheal primary epithelium) stood at 0.4 mM; in the experiment with S. pneumoniae (Epithelial cell, first table, CHANG cells), 1.5 mM; with S. pneumoniae (Epithelial cell, first table, Det-562 nasopharyngeal carcinoma), 5.4 mM; in the experiment with S. pneumoniae (Epithelial cell, read-out: IC50 [mean (SD)], Monovalent, 1° lung: rat trachea epithelial monolayer (primary)), 0.25 mM; with S. pneumoniae (setting [11]) it was 1.4 mM; in the experiment with S. pneumoniae (setting [12]), 4 mM. Further, the half-maximal inhibitory concentration (IC50) is 4 mM in the experiment with S. pneumoniae (FaDu, first table, FaDu nasopharyngeal carcinoma); 4.5 mM with S. pneumoniae (FaDu, read-out: IC50 [mean (SD)], Monovalent, FaDu human nasopharyngeal carcinoma); 0.1 mM in the experiment on S. pneumoniae (HUVEC, first table, HUVEC activated with TNFα or thrombin); 0.069 mM in the experiment with S. pneumoniae (setting [13]); more than 10 mM in experiment [5]. The “binding by immunoglobulin E-binding protein” value in [7] is recorded as “not bound or is only negligibly bound”. In addition, the binding activity result (in the experiment with Escherichia coli C600; in [6]) was “no activity” throughout. The “CFU (lung lavage)” value in the experiment with S. pneumoniae strain AII [4] (setting [14]) is given as < 10 CFU (colonies/ml lavage fluid); with S. pneumoniae strain AII [4] (setting [15]) it was 0 CFU (colonies/ml lavage fluid); in the experiment on S. pneumoniae strain AII [4] (setting [16]), 0 CFU (colonies/ml lavage fluid). In addition, the “activity in the direct adhesion assay” value in the experiment with Pseudomonas aeruginosa is “no activity”.
N-glycolylsialoparagloboside: in the experiment on Escherichia coli, the inhibition entry is given as “inhibition”.
With `CC(=O)N[C@H]1[C@H](O[C@H]2[C@@H](O)[C@@H](CO)O[C@@H](O[C@H]3[C@H](O)[C@@H](O)C(O)O[C@@H]3CO)[C@@H]2O)O[C@H](CO)[C@@H](O[C@@H]2O[C@H](CO)[C@H](O)[C@H](O[C@@H]3O[C@H](CO)[C@H](O)[C@H](O)[C@H]3NC(C)=O)[C@H]2O)[C@@H]1O` (stereo partly drawn) [Ga1NAc β1-3 LNnT, GalNAcβ1-3-Galβ1-4-GlcNAcβ1-3-Galβ1-4-Glc], the IC50 in experiment [1] was 7.8 mM; in the experiment on S. pneumoniae (setting [9]) it was 0.08 mM; in the experiment on S. pneumoniae (setting [13]), 0.075 mM; in experiment [5] it was more than 10 mM.
Consider `CC(=O)N[C@H]1[C@H](O[C@H]2[C@@H](O)[C@@H](CO)O[C@@H](O[C@H]3[C@H](O)[C@@H](O)C(O)O[C@@H]3CO)[C@@H]2O)O[C@H](CO)[C@H](O)[C@@H]1O` (stereo partly drawn) [Ga1NAc β1-3 Ga1β1-4 Glc, GalNAcβ1-3-Galβ1-4-Glc], for which the IC50 in experiment [1] is 4.2 mM; in the experiment with S. pneumoniae (setting [9]), 0.085 mM; in the experiment on S. pneumoniae (setting [11]) it was more than 6 mM; with S. pneumoniae (setting [13]), 0.07 mM; in [5] it was 10.6 mM.
Turning to `CC(=O)N[C@H]1[C@H](O[C@H]2[C@@H](O)[C@@H](CO)O[C@@H](O[C@H]3[C@H](O)[C@@H](O)C(O)O[C@@H]3CO)[C@@H]2O)O[C@H](CO)[C@@H](O)[C@@H]1O[C@@H]1O[C@H](CO)[C@H](O)[C@H](O[C@]2(C(=O)O)C[C@H](O)[C@@H](NC(C)=O)[C@H]([C@H](O)[C@H](O)CO)O2)[C@H]1O` (stereo partly drawn) [NeuAcα2-3-Galβ1-3-GlcNAcβ1-3-Galβ1-4-Glc, reference compound], in experiment [7], the “binding by immunoglobulin E-binding protein” value is on record as “strongly bound”.
For the compound sialylparagoboside, the binding inhibition result in the experiment on Mycoplasma pneumoniae is on record as “no activity”.

By IC50 is commonly meant the concentration that inhibits the measured activity by half.
